Read-outs that look alike come from different tables or passages of the source.

Experimental findings from patent publication US8119683B2, “Aryl substituted sulfonamide compounds and their use as anticancer agents” (Taipei Medical University, priority 2009, dated 2012) are described below.

In one data set the test system is KB-7D cells. As to the kind of experiment: Cell growth inhibition assay on drug-resistant KB-7D cells. It is filed as cell-based. The settings on record: Homo sapiens, KB7D, Etoposide resistance. The protocol:
(§1) Cell in logarithmic phase were cultured at a density of 5000 cells/mL/well in a 24-well plate. KB-VIN10 cells were cultured in a medium free of test compound for 3 days prior to use. The cells were treated with the test compound at various concentrations for 72 h. The effect of the test compound on cell growth was evaluated using the methylene blue dye assay. […] Compounds 16 and 24 were tested in this assay. […] KB-CPT100 and KB-CPT300 cells were generated by camptothecin-driven selection. […] (See Liou, J. P. et al J. Med. Chem. 2004, 47, 4247-4257 and Kuo, C. C. et al. Cancer Res. 2004, 64, 4621-4628.) Anticancer activities of the aryl substituted sulfonamide compounds synthesized in the above examples were evaluated by testing their inhibitory effects on these drug-resistant cell lines. Compound 24 was tested in this assay.

For the next data set, the system named is KB-CPT300 cells. The data set is described as follows: Cell growth inhibition assay on drug-resistant KB-CPT300 cells. The note with it: Homo sapiens; KB-CPT300, Camptothecin resistance. It is filed as cell-based. The protocol: as §1
In another data set the test system is VEGF165. The data set is described as follows: VEGF production inhibition assay (ELISA). The settings on record: Homo sapiens, medium of the HUVEC network assay. It is filed as cell-based. The protocol: (ii) VEGF Production Inhibition Assay
The medium of assay (i) above was collected. VEGF165 levels were measure by ELISA. In brief, a monoclonal antibody specific for VEGF was pre-coated onto a microplate. A control cell culture medium and the medium of assay (i) were added into the wells and any VEGF present was bound to the wells by the immobilized antibody. After washing away any unbound substances, an enzyme-linked polyclonal antibody specific for VEGF was added to the wells. Following a wash to remove any unbound antibody-enzyme reagent, a substrate solution was added to the wells and color developed in proportion to the amount of VEGF bound in the initial step. The color development was stopped and the intensity of the color was measured.

In the next data set the test system is KB-VIN10 cells. The data set is described as follows: Cell growth inhibition assay on multidrug resistant KB-VIN10 cells. It is filed as cell-based. The note with it: Homo sapiens. The protocol: Cell in logarithmic phase were cultured at a density of 5000 cells/mL/well in a 24-well plate. KB-VIN10 cells were cultured in a medium free of test compound for 3 days prior to use. The cells were treated with the test compound at various concentrations for 72 h. The effect of the test compound on cell growth was evaluated using the methylene blue dye assay. […] KB-CPT100 and KB-CPT300 cells were generated by camptothecin-driven selection. […] (See Liou, J. P. et al J. Med. Chem. 2004, 47, 4247-4257 and Kuo, C. C. et al. Cancer Res. 2004, 64, 4621-4628.) Anticancer activities of the aryl substituted sulfonamide compounds synthesized in the above examples were evaluated by testing their inhibitory effects on these drug-resistant cell lines. Compound 24 was tested in this assay.

The test system of data set [1] is non-small-cell lung cancer H1299 cells. As to the kind of experiment: Cell growth inhibition assay, H1299 cells. The note with it: Homo sapiens, NCI-H1299. Type of data set: cell-based. The protocol: (§2) Human oral epidermoid carcinoma KB cells, non small cell lung carcinoma H460 cells, colorectal carcinoma HT29 cells, and stomach carcinoma MKN45 cells were maintained in RPMI-1640 medium supplied with 5% fetal bovine serum. The cells were treated with the test compound at various concentrations for 72 h. The effect of the test compound on cell growth was evaluated using a methylene blue dye assay similar to that described in Baguley et al., Anal Biochem, 1984, 139: 272-277. […] Compounds 16, 17, and 24 were tested on these three cell lines using methylene blue dye assay. ABT-751 was used as positive control (which was synthesized with the method described in Yoshino et al., J. Med. Chem. 1992, 35, 2496-2497; descriptions of ABT-751 can also be found in Koyanagi et al., Cancer Res. 1994, 54, 1702-1706; Yee et al., Cancer Res. 2005, 11, 6615-6624; and Mauer, et al., J. Thorac. Oncol. 2008, 3, 613-636).
(§3) Further, Compound 24 was tested on non-small-cell lung cancer A549 and H1299 cells, colorectal carcinoma HT29, and normal human umbilical vein endothelial cells (HUVECs).

In data set [2] the test system is colorectal carcinoma HT29 cells. As to the kind of experiment: Cell growth inhibition assay, HT29 cells. The note with it: Homo sapiens, HT-29. It is filed as cell-based. The protocol:
as §2, §3

The subject of data set [3] is non-small-cell lung cancer A549 cells. As to the kind of experiment: Cell growth inhibition assay, A549 cells. It is filed as cell-based. The note with it: Homo sapiens. The protocol: as §2, §3
Data set [4] relates to Human oral epidermoid carcinoma KB cells. As to the kind of experiment: Cell growth inhibition assay (methylene blue dye), KB cells. It is filed as cell-based. The protocol:
(§4) Anticancer activities of the aryl substituted sulfonamide compounds synthesized in the above examples were evaluated by testing their inhibitory effects on mammalian cancer cell growth.
(§5) Human oral epidermoid carcinoma KB cells, non small cell lung carcinoma H460 cells, colorectal carcinoma HT29 cells, and stomach carcinoma MKN45 cells were maintained in RPMI-1640 medium supplied with 5% fetal bovine serum. The cells were treated with the test compound at various concentrations for 72 h.

Data set [5] deals with drug-resistant cell lines (KB-VIN10, KB-TAX50, KB-7D, KB-CPT100, KB-CPT300, KB-L30). The data set is described as follows: Growth inhibition on the drug-resistant KB cell lines (summary over the lines). It is filed as cell-based. The settings on record: Homo sapiens, summary of Table 3, read-out: IC50 values on the drug-resistant cell lines (range over lines). The protocol: as §1

Data set [6] has as its system Human umbilical vein endothelial cells (HUVECs). As to the kind of experiment: Cellular network (tube) formation inhibition assay. Type of data set: cell-based. The protocol:
(i) Cellular Network Formation Inhibition Assay
Each well of a 96-well plate was coated with an extracellular matrix containing collagen for 1 hr to allow the gel to solidify. Human umbilical vein endothelial cells (HUVECs) suspension was prepared at a concentration of 1×10^5 cells/mL in M199 medium supplemented with endothelial cell growth supplements with 20% FBS. Then, 100 μl of the cell suspension was added to each gel-coated well of the plate. Cells were incubated with or without a test compound for 18 hrs at 37° C. Without the test compound, a cellular network structure was fully developed after 12-18 hrs of incubation. The number of tubes formed was counted using light microscopy at 200× magnification.

The subject of the next data set is KB-TAX50 cells. As to the kind of experiment: Cell growth inhibition assay on drug-resistant KB-TAX50 cells. The note with it: Homo sapiens; KB-TAX50, Paclitaxel resistance. Type of data set: cell-based. The protocol:
as §1

A further data set concerns KB-CPT100 cells. The data set is described as follows: Cell growth inhibition assay on drug-resistant KB-CPT100 cells. It is filed as cell-based. The settings on record: Homo sapiens, KBCPT100; KB-CPT100, Camptothecin resistance. The protocol:
as §1

Data set [7] concerns CD31-positive cells in tumor tissue (microvessel density). The data set is described as follows: Anti-vascular activity, CD31 immunofluorescence staining in tumor tissues. The note with it: tumor tissue from mice. Type of data set: in vivo. Further details: dose or concentration left out as unconfirmed. The protocol:
Anti-vascular activities of the aryl substituted sulfonamide compounds were evaluated by immunofluorescence staining in tumor tissues.
Rat anti-mouse CD31 antibodies were purchased from BD Biosciences. Tumor tissue samples were harvested from mice in both the control and test compound-treated groups. Frozen sections were fixed with acetone and chloroform. To block nonspecific proteins, each sample was incubated in 4.5% fish gelatin (BB International Co.) for 20 min. Expression of CD31 was detected in blood vessels using rat anti-mouse CD31 as the primary antibody and TexasRed (Jackson) labeled-goat anti-rat IgG antibody as the secondary antibody. The mean microvessel density (MVD) was determined by first counting and then averaging the number of CD31-positive cells in five random high power microscopic fields from different tumor samples.

Data set [8] concerns stomach carcinoma MKN45 cells. As to the kind of experiment: Cell growth inhibition assay (methylene blue dye), MKN45 cells. Type of data set: cell-based. The note with it: Homo sapiens, MKN-45, 72 h, read-out: Cell type (IC50 ± SD, nM) MKN45 (stomach). The protocol: as §4, §5
The next data set deals with KB-L30 cells. As to the kind of experiment: Cell growth inhibition assay on drug-resistant KB-L30 cells. Type of data set: cell-based. The settings on record: Homo sapiens; KB-L30, BPR0L075 resistance. The protocol: as §1
In data set [9] the test system is non small cell lung carcinoma H460 cells. The data set is described as follows: Cell growth inhibition assay (methylene blue dye), H460 cells. It is filed as cell-based. The settings on record: Homo sapiens, NCI-H460, 72 h, read-out: Cell type (IC50 ± SD, nM) H460 (lung). The protocol:
as §4, §5

Data set [10] has as its system normal human umbilical vein endothelial cells (HUVECs). As to the kind of experiment: Cell growth inhibition assay, normal HUVECs. The settings on record: HUVEC. It is filed as cell-based. The protocol:
as §2, §3

Turning to `COc1ccc(S(=O)(=O)N2CCc3cccc(-c4ccncc4)c32)cc1` [Compound 24, 1-(4-methoxy-benzenesulfonyl)-7-pyridin-4-yl-2,3-dihydro-1H-indole], the melting point was in the range of 195.9 to 196.8 °C. In the data set with KB-7D cells, this compound gave an IC50 of 257 ± 26.6 nM. Besides, in the data set on KB-CPT300 cells, the IC50 is 93 ± 15.7 nM. The inhibition at 0.5 µM with VEGF165 was > 50%. In addition, the IC50 in the data set with KB-VIN10 cells (KB-VIN10 (P-gp170/MDR overexpression), 72 h, methylene blue, read-out: IC50, growth inhibition of KB-VIN10 cells) turned out to be 106 nM. The IC50 in the data set with KB-VIN10 cells (KB-VIN10, Vincristine resistance, read-out: Growth Inhibition (IC50)) stood at 106 ± 18 nM. Moreover, in data set [1], the IC50 was determined as 132 ± 13.7 nM. In [2], this compound gave an IC50 of 201 ± 13.9 nM. In addition, in data set [3], the IC50 was found to be 150 ± 8.5 nM. In addition, the IC50 in data set [4] (KB (Parental), Table 3, read-out: Growth Inhibition (IC50)) turned out to be 96 ± 14.1 nM. In data set [4] (KB cells, 72 h, methylene blue dye assay, read-out: Cell type (IC50 ± SD, nM) KB (oral)), the IC50 was determined as 96 ± 14.1 nM. For the same compound, the IC50 in data set [4] (KB cells, bands, read-out: IC50, inhibiting proliferation of KB cells (band)) fell in the range of 1 to 99 nM. Also, in [5], the IC50 was in the range of 90 to 250 nM. The compound further returned an IC50 in data set [6] (Homo sapiens, HUVEC, 18 hrs, unit inferred) of 500 nM. Also, the “tube formation inhibition” value in [6] (at 1.5 (unit not given)) is “completely inhibited tube formation”. The same compound displayed an IC50 in the data set on KB-TAX50 cells of 188 ± 25.3 nM. Further, in the data set with KB-CPT100 cells, the IC50 turned out to be 95 ± 12.1 nM. In addition, the “decrease of vascular area compared to the blank control” value in data set [7] is on record as “five-fold”. Also, the IC50 in [8] is 69.5 ± 7.6 nM. For the same compound, in the data set on KB-L30 cells, the IC50 is 237 ± 26.6 nM. Further, the IC50 in [9] was 101 ± 8 nM. The IC50 in [10] turned out to be 510 ± 22.2 nM.
